{"source": "patent US20140287074A1", "about": "“Extracts of deschampsia antartica with antineoplastic activity” (Uxmal S.A., Chile, priority 2013, published 2014)", "system": "LoVo colorectal cancer cells", "experiment": "In vitro growth (proliferation, viability) of LoVo colon cancer cells", "type": "cell-based, human", "protocol": "FIG. 4. Effects of fractions of Deschampsia antarctica in concentrations of 100 μg/ml on in vitro growth of colon cancer cells (HT29 and LoVo), hepatic cancer cells (Hep3B) and control cells (wi38). GCB1, GCB2 and GCB3 correspond to extraction of three different collections of Deschampsia antarctica plants for the Antarctic. The extracts were prepared with water, then dried and dissolved in methanol. Control contains no extract added and the methanol control is a control containing 5% methanol as was used to dissolve the dried aqueous extract.\nFIG. 5. Effects of ethyl acetate (a and B) and methanol (c and d) extracts at to concentration of 75 ug/ml on LoVo colorectal cancer cells (a and c) and we38 human fetal fibroblast cells (b and d).\nIts effect on WI38 (normal lung fibroblasts) was tested at the maximum concentration to determine specificity and toxicity.\nThe same extract was tested in WI 38 cells (normal lung fibroblasts).", "data": [{"smiles": "O=c1cc(-c2ccc(O)c(O)c2)oc2c([C@@H]3OC(CO)[C@@H](O)[C@H](O)C3O[C@H]3OC[C@H](O)[C@@H](O)C3O)c(O)cc(O)c12", "note": "(single isomer, unassigned; peak 2) [peak 2, orientin 2″-beta-arabinopyranoside]", "values": [{"measurement": "concentration at which inhibitory effect on cellular proliferation was observed", "setting": "corresponds to 1.7 mM", "result": 1000, "unit": "µg/mL"}, {"measurement": "concentration at which inhibitory effect on cellular proliferation was observed", "setting": "tested at 0.017, 0.17 and 1.7 mM, FIG. 6", "result": 1.7, "unit": "mM"}]}]}
